Ki and Kd data for five compounds are collected here from ChEMBL document CHEMBL4431334, “Occupying a flat subpocket in a tRNA-modifying enzyme with ordered or disordered side chains: Favorable or unfavorable for binding?” (Bioorg Med Chem, 2016).

Experiment [1] in a line: Binding affinity to Zymomonas mobilis tRNA guanine transglycosylase assessed as inhibition of [8-3H]guanine incorporation into Escherichia coli tRNA Tyr at position G34 preincubated for 10 mins followed by tRNA Tyr/[8-3H]guanine addition measured after 30 mins by liquid scintillation counting.
Experiment [2] can be described thus: Binding affinity to Zymomonas mobilis tRNA guanine transglycosylase by isothermal titration calorimetry. A general note: In ITC the heat of successive injections is recorded.

On to `Nc1nc2cc3nc(NCCc4ccccc4)[nH]c3cc2c(=O)[nH]1`, for which the Ki in experiment [1] was determined as 10 nM. The compound also displayed an equilibrium dissociation constant (Kd) in experiment [2] of 56.6 nM. In the case of `Nc1nc2cc3nc(NCCc4ccc(C(=O)O)cc4)[nH]c3cc2c(=O)[nH]1`, in experiment [1], the Ki was 30 nM. In experiment [2], this compound came in with a Kd of 29.8 nM. With `N#Cc1ccc(CCNc2nc3cc4nc(N)[nH]c(=O)c4cc3[nH]2)cc1`, the Ki in experiment [1] was 21 nM. For the compound `COC(=O)c1ccc(CCNc2nc3cc4nc(N)[nH]c(=O)c4cc3[nH]2)cc1`, the Ki in experiment [1] came to 2 nM. As for `Nc1nc2cc3nc(NCCc4ccc(CCO)cc4)[nH]c3cc2c(=O)[nH]1`, the Ki in experiment [1] was determined as 7 nM.

By Ki is commonly meant a dissociation constant, usually derived from enzyme kinetics or from competition with a known ligand. The term Kd denotes the equilibrium constant for the complex coming apart. A lower Kd goes with higher affinity.
